Experimental data taken from US8940863B2, “Selective anticancer chimeric peptides which bind neuropilin receptor” (Stella Pharma Corporation, priority 2008, dated 2015).
Entries after “also recorded” stand apart in the source; their conditions may differ. Where two headings read alike, the source gives them in different places. Blank lines part the entries; values can stand above or below the molecule they belong to. Non-standard residues stand in square brackets, D forms with d. Residues, ends and D or L forms follow the SMILES beside them. No end group written: not given here.

What was measured:
[1] = biological target: T1, human recombinant IL4R protein (Homo sapiens, UniProt P24394); experiment: BIACORE binding to IL4R
T1 sequence (P24394 26-825): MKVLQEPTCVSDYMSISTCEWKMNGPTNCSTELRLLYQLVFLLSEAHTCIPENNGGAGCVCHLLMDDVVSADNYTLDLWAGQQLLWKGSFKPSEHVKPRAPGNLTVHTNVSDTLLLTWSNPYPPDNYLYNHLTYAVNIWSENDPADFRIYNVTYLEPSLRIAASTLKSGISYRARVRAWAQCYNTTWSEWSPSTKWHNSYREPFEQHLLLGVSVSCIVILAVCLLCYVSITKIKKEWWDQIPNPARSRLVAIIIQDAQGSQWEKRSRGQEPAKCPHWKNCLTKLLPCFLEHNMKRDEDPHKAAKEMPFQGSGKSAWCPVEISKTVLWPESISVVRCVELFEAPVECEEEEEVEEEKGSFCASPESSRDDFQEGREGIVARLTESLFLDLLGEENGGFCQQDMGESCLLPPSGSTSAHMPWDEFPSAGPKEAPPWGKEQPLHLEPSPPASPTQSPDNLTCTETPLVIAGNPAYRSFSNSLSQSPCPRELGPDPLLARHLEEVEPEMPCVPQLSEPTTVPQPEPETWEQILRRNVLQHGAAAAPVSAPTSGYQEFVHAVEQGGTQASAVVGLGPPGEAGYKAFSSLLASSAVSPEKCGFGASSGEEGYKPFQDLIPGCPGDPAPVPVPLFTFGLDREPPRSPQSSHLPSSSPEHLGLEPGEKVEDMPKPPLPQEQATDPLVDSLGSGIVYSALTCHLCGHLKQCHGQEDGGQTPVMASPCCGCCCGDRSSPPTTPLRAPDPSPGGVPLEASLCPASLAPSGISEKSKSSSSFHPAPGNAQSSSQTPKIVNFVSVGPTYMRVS

BT-20 [2] = system: BT-20
Panc-1 = details: 48 h
BxPC-3 [3] = system: BxPC-3
SK-BR-3 = details: 48 h
[4] = system: PE cell (pancreatic epidermal); experiment: Cell viability assay (WST-8); assay type: cell-based
Excerpt: (§1) Correlation between IC50 values was observed.

CFPAC-1 = details: 48 h
T47D = experiment: Cell viability assay (WST-8); assay type: cell-based, human; details: 48 h
Excerpt: as §1

HEK293T = assay type: cell-based
HuCCT-1 = details: 48 h
U251 [5] = system: U251
U251 [6] = experiment: Short-exposure killing of cancer cells (WST-8); assay type: cell-based, human; details: 10 μM
HN-12 = experiment: Cell viability assay (WST-8); assay type: cell-based, human; details: 72 hours
EGFR = EGFR (Homo sapiens, UniProt P00533); details: Li Z et al., FASEB J 2005; read-out: dissociation constant to EGFR; cited from earlier work
DU145 = experiment: Cell viability assay (WST-8); assay type: cell-based, human; details: 72 hours
A172 = experiment: Cell viability assay (WST-8); assay type: cell-based; details: 72 h
BxPC-3 [7] = experiment: Short-exposure killing of cancer cells (WST-8); assay type: cell-based, human; details: 10 μM
WI-38 = details: 72 h
KCCT873 = experiment: Cell viability assay (WST-8); assay type: cell-based; details: 72 h
[8] = system: human recombinant IL13R protein; experiment: BIACORE binding to IL13R
HEK293 = HEK293 normal cells; 72 hours; mean (Table 2)
H322 lung cancer cells = experiment: Membrane permeabilization (calcein, confocal); assay type: cell-based, human; details: 10 μM; for percentage of influx of medium to the cells over time (words): compared with EB-Lytic peptide
MRC-5 = experiment: Cell viability assay (WST-8); details: MRC-5 normal cells; 72 hours; mean (Table 2)
BT-20 [9] = experiment: Annexin V assay and caspase assay; assay type: cell-based, human; details: 5 μM, two hours
Procedure: BT-20 cells were treated for 2 hours at 37° C. with or without EB-lytic chimeric peptide at 5 μM. For determination of caspase activation or Annexin V-positive expression, peptide-treated cultures were simultaneously analyzed for caspase activity and propidium iodide (PI) staining using a carboxyfluorescein FLICA caspase-3&7 assay (Immunochemistry Technologies, Bloomington, Minn.), or, alternatively, for Annexin V labeling and PI staining by multiparametric flow cytometry. Furthermore, in accordance with the manufacturer's instructions, using a confocal laser scanning microscope, terminal deoxynucleotidyl transferase-dUTP nick end labeling (TUNEL) assay was conducted by MEBSTAIN Apoptosis Kit Direct (MBL).
In accordance with the method of Example 1, Annexin V assay and caspase assay were performed. […] For determination of caspase activation or Annexin V-positive expression, peptide-treated cultures were simultaneously analyzed for caspase activity and propidium iodide (PI) staining using a carboxyfluorescein FLICA caspase-3&7 assay (Immunochemistry Technologies, Bloomington, Minn.), or, alternatively, for Annexin V labeling and PI staining by multiparametric flow cytometry. The results are shown in FIG. 20A (Annexin V) and FIG. 20B (caspase activity)

[10] = system: human breast cancer cell line MDA-MB-231; experiment: Antitumor effect in MDA-MB-231 bearing mouse models; assay type: in vivo, athymic nude mice; details: 1 mg/kg intravenously injected; from day 5
[11] = biological target: human recombinant NRP1 protein (Homo sapiens, UniProt O14786); experiment: BIACORE binding to NRP1
Chain of human recombinant NRP1 protein (O14786 22-923): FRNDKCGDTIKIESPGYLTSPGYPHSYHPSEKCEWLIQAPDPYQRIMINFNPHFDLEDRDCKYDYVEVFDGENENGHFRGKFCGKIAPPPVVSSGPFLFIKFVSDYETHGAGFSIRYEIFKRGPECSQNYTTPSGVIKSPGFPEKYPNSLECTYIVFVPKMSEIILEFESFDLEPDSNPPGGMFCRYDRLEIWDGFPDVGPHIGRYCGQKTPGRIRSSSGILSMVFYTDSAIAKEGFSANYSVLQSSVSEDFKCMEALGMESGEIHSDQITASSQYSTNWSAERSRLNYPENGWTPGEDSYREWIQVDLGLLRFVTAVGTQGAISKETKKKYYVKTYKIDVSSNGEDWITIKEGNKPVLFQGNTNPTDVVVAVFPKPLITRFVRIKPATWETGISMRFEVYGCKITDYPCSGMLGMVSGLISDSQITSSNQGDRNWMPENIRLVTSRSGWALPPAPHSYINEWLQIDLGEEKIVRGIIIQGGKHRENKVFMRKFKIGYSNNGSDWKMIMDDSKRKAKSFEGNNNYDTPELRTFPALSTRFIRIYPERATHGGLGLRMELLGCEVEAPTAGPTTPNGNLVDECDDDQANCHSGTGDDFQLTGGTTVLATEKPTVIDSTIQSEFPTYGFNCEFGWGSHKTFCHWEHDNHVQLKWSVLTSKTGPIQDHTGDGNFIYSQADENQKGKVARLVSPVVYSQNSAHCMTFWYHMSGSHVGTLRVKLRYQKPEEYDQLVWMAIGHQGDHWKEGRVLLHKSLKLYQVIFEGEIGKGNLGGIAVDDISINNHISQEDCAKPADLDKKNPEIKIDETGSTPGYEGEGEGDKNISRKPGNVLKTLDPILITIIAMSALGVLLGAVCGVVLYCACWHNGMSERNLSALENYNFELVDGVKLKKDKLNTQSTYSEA
Procedure: Based on the results of binding three-dimensional structure analysis of NRP1 and a Sema3A, a ligand thereof, partial peptide sequence which is important for binding (NYQWVPYQGRVPYPR (SEQ ID NO: 29)) was designed and chemically synthesized. By BIACORE analysis, binding affinity with human recombinant NRP1 protein was assessed.

[12] = listed as EB (H2R)-Lytic peptide

Molecule: KQLIRFLKRLDRN (IL4R binding peptide) [IL4R-binding peptide]
binding affinity (BIACORE, words) [1]: binding affinity with human recombinant IL4R protein was observed

IC50 (BT-20 [2]; 48 h): 10.9 µM
IC50 (Panc-1): 13.1 µM
IC50 (BxPC-3 [3]; 48 h): 12.5 µM
IC50 (SK-BR-3): 8 µM
IC50 (CFPAC-1): 10.6 µM
IC50 (T47D): 4.1 µM
IC50 (SU.86.86; 48 h): 7.9 µM
IC50 (HuCCT-1): 13.6 µM
IC50 (MDA-MB-231; 48 h): 11.5 µM
Molecule: CC(C)C[C@H](NC(=O)[C@H](CCCCN)NC(=O)[C@@H](CC(C)C)NC(=O)[C@H](CC(C)C)NC(=O)[C@H](CCCCN)NC(=O)[C@H](CCCCN)NC(=O)[C@H](CC(C)C)NC(=O)[C@@H](CC(C)C)NC(=O)[C@@H](CCCCN)NC(=O)[C@H](CCCCN)NC(=O)[C@H](CC(C)C)NC(=O)[C@H](CC(C)C)NC(=O)[C@@H](CCCCN)NC(=O)[C@H](CC(C)C)NC(=O)[C@H](CC(C)C)NC(=O)CNC(=O)CNC(=O)[C@H](CCCNC(=N)N)NC(=O)[C@@H]1CCCN1C(=O)[C@H](Cc1ccc(O)cc1)NC(=O)[C@@H]1CCCN1C(=O)[C@@H](NC(=O)[C@H](CCCNC(=N)N)NC(=O)CNC(=O)[C@H](CCC(N)=O)NC(=O)[C@H](Cc1ccc(O)cc1)NC(=O)[C@@H]1CCCN1C(=O)[C@@H](NC(=O)[C@H](Cc1c[nH]c2ccccc12)NC(=O)[C@H](CCC(N)=O)NC(=O)[C@H](Cc1ccc(O)cc1)NC(=O)[C@@H](N)CC(N)=O)C(C)C)C(C)C)C(=O)O [Sema3A(aa363-377)-nLytic] (H-NYQWVPYQGRVPYPRGGLL[dK]LLK[dK][dL]LKKL[dL]KL-OH; N-terminus and C-terminus assumed)
IC50 ([4]; 48 h): > 50 µM
IC50 (HEK293T; 48 h): > 20 µM

Molecule: KDLLLHLKKLFREGQFNGGGKLLLKLLKKLLKLLKKK (IL13-lyticL chimeric peptide)
cell-killing effect compared with LyticL alone (U251 [5]; U251, 72 hours): cell-killing effect was enhanced
contact time that sufficiently induces cell death (U251 [6]): 10 min
cell-killing effect compared with LyticL alone (HN-12): cell-killing effect was enhanced

Molecule: YHWYGYTPQNVI [EB peptide]
Kd (EGFR): 0.022 µM

Molecule: YHWYGYTPQNVIGGGGGRLLRRLLRRLLRK (EGFbuf sequence)
cell-killing effect compared with buf alone (DU145): cell-killing effect was enhanced
cell-killing effect to H322 compared with lung normal cell line MRC-5 (H322; 0 to 20 μM, 72 hours): cell-killing sensitiveness to cancer cells was high
cell-killing effect of chimeric peptide compared with lytic moiety alone (H322; H322, 72 hours): cell-killing effect was enhanced

IC50 (U251 [5]; 72 h): 3.7 ± 0.1 µM
IC50 (BxPC-3 [3]; 72 h): 3.2 ± 0.4 µM
IC50 (MDA-MB-231; 72 h): 5.6 ± 0.5 µM
Molecule: KQLIRFLKRLDRNGGGKLLLKLLKKLLKLLKKK [IL4-LyticL]
IC50 (A172): 3.8 ± 1.1 µM
cell-killing effect compared with LyticL alone (BxPC-3 [3]; BxPC-3, 72 hours): cell-killing effect was enhanced
contact time that sufficiently induces cell death (BxPC-3 [7]): 10 min
IC50 (WI-38): 9.8 ± 0.8 µM
IC50 ([4]; PE normal cells, 72 hours, Mean ± SD (Table 4), read-out: IC50): > 20 µM
IC50 (HEK293T; 72 h): 7.2 ± 0.7 µM
cell-killing effect compared with LyticL alone (MDA-MB-231; MDA-MB-231, 72 hours): cell-killing effect was enhanced
IC50 (KCCT873): 4.6 ± 0.1 µM

Molecule: KDLLLHLKKLFREGQFN (IL13R binding peptide) [IL13R-binding peptide]
binding affinity (BIACORE, words) [8]: binding affinity with human recombinant IL13R protein was observed

Molecule: CC[C@H](C)[C@H](NC(=O)[C@@H](NC(=O)[C@H](CC(N)=O)NC(=O)[C@H](CCC(N)=O)NC(=O)[C@@H]1CCCN1C(=O)[C@@H](NC(=O)[C@H](Cc1ccc(O)cc1)NC(=O)CNC(=O)[C@H](Cc1ccc(O)cc1)NC(=O)[C@H](Cc1c[nH]c2ccccc12)NC(=O)[C@H](CCCNC(=N)N)NC(=O)[C@@H](N)Cc1ccc(O)cc1)[C@@H](C)O)C(C)C)C(=O)NCC(=O)NCC(=O)NCC(=O)N[C@@H](CCCCN)C(=O)N[C@@H](CC(C)C)C(=O)N[C@H](CC(C)C)C(=O)N[C@@H](CC(C)C)C(=O)N[C@@H](CCCCN)C(=O)N[C@H](CC(C)C)C(=O)N[C@@H](CC(C)C)C(=O)N[C@H](CCCCN)C(=O)N[C@H](CCCCN)C(=O)N[C@@H](CC(C)C)C(=O)N[C@@H](CC(C)C)C(=O)N[C@@H](CCCCN)C(=O)N[C@H](CC(C)C)C(=O)N[C@@H](CC(C)C)C(=O)N[C@@H](CCCCN)C(=O)N[C@@H](CCCCN)C(=O)N[C@@H](CCCCN)C(=O)O [EB(H2R)-lytic peptide] (H-YRWYGYTPQNVIGGGKL[dL]LK[dL]L[dK][dK]LLK[dL]LKKK-OH; N-terminus and C-terminus assumed)
IC50 (HEK293): > 20 µM
IC50 Ratio EB-lytic peptide/EB(H2R)-lytic peptide (BT-20 [2]; BT-20): 3.4
IC50 (BT-20 [2]; BT-20 cancer cells, 72 hours, mean (Table 2)): 1.9 µM
IC50 Ratio EB-lytic peptide/EB(H2R)-lytic peptide (U251 [5]; U251): 1.4
IC50 (U251 [5]; U251 cancer cells, 72 hours, mean (Table 2)): 8.4 µM
IC50 Ratio EB-lytic peptide/EB(H2R)-lytic peptide (BxPC-3 [3]; BxPC-3): 1.8
IC50 (BxPC-3 [3]; BxPC-3 cancer cells, 72 hours, mean (Table 2)): 6.6 µM
number of cells with the membrane disintegrated (green) over time (H322 lung cancer cells; 0 to 20 minutes): increases in shorter time
percentage of influx of medium to the cells over time (words) (H322 lung cancer cells; [12]): more rapid
percentage of influx of medium to the cells over time (words) (H322 lung cancer cells; listed as EB(H2R)-Lytic peptide): more efficient
IC50 Ratio EB-lytic peptide/EB(H2R)-lytic peptide (LNCaP; LNCaP): 2.1
IC50 (LNCaP; LNCaP cancer cells, 72 hours, mean (Table 2)): 4.8 µM
IC50 (MRC-5): > 20 µM
Annexin V-positive expression (words) (BT-20 [9]; [12]): induces Annexin V-positive expression more strongly
caspase 3,7 activation (words) (BT-20 [9]; [12]): induces caspase 3 & 7 activity more strongly
Annexin V-positive expression (words) (BT-20 [9]; listed as EB(H2R)-lytic): induced Annexin V-positive expression more strongly
caspase 3,7 activation (words) (BT-20 [9]; listed as EB(H2R)-lytic): induced caspase 3,7 activation more strongly
IC50 Ratio EB-lytic peptide/EB(H2R)-lytic peptide (SU.86.86; SU.86.86): 1.6
IC50 (SU.86.86; SU.86.86 cancer cells, 72 hours, mean (Table 2)): 7.4 µM
IC50 Ratio EB-lytic peptide/EB(H2R)-lytic peptide (H322; H322): 2.1
cell-killing effect compared with wild-type EGFR-binding chimeric peptide (H322; H322, 72 hours): enhanced more
IC50 (H322; H322 cancer cells, 72 hours, mean (Table 2)): 3.2 µM
antitumor effect [10]: in vivo antitumor effect higher; also recorded: higher antitumor effect in vivo; also recorded: sufficient antitumor effect

Molecule: NYQWVPYQGRVPYPR (NRP1 binding peptide) [NRP1-binding peptide]
binding affinity (BIACORE, words) [11]: binding affinity with human recombinant NRP1 protein was observed
